Measured values from patent US20240336574A1 (LATIGO BIOTHERAPEUTICS, INC., priority 2021, published 2024).
Where two headings read alike, the source gives them in different places.

Target: T1, recombinant human NaV1.8 stably transfected HEK cells (Homo sapiens, UniProt Q9Y5Y9)
T1 construct: expressed in transfected cells; host or cells: HEK cells, stably transfected
Test: Compound profiling on NaV1.8, human NaV1.8 cell line, SyncroPatch384PE automated patch clamp assay (Example 102, first set of compounds, Table 16)
Format: cell-based
Settings: human NaV1.8 HEK cells, Table 16 (first set of compounds)
How it was run: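 IC50s come from two read-outs: resting-state block (P1, 10 mV step from −120 mV) and inactivated-state block (P2, after 10 s at −40 mV), scaled between DMSO and 250 μM tetracaine. Compounds (20–0.001 μM final, 1:3 steps) were applied for 5 min, 15 s sweeps. Cells kept at 30 °C the day before.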

[1] = inactivated state block (P2 measurement), read-out: P2IC50
[2] = resting state block (P1 measurement), read-out: P1IC50

T1 sequence (Q9Y5Y9 whole entry): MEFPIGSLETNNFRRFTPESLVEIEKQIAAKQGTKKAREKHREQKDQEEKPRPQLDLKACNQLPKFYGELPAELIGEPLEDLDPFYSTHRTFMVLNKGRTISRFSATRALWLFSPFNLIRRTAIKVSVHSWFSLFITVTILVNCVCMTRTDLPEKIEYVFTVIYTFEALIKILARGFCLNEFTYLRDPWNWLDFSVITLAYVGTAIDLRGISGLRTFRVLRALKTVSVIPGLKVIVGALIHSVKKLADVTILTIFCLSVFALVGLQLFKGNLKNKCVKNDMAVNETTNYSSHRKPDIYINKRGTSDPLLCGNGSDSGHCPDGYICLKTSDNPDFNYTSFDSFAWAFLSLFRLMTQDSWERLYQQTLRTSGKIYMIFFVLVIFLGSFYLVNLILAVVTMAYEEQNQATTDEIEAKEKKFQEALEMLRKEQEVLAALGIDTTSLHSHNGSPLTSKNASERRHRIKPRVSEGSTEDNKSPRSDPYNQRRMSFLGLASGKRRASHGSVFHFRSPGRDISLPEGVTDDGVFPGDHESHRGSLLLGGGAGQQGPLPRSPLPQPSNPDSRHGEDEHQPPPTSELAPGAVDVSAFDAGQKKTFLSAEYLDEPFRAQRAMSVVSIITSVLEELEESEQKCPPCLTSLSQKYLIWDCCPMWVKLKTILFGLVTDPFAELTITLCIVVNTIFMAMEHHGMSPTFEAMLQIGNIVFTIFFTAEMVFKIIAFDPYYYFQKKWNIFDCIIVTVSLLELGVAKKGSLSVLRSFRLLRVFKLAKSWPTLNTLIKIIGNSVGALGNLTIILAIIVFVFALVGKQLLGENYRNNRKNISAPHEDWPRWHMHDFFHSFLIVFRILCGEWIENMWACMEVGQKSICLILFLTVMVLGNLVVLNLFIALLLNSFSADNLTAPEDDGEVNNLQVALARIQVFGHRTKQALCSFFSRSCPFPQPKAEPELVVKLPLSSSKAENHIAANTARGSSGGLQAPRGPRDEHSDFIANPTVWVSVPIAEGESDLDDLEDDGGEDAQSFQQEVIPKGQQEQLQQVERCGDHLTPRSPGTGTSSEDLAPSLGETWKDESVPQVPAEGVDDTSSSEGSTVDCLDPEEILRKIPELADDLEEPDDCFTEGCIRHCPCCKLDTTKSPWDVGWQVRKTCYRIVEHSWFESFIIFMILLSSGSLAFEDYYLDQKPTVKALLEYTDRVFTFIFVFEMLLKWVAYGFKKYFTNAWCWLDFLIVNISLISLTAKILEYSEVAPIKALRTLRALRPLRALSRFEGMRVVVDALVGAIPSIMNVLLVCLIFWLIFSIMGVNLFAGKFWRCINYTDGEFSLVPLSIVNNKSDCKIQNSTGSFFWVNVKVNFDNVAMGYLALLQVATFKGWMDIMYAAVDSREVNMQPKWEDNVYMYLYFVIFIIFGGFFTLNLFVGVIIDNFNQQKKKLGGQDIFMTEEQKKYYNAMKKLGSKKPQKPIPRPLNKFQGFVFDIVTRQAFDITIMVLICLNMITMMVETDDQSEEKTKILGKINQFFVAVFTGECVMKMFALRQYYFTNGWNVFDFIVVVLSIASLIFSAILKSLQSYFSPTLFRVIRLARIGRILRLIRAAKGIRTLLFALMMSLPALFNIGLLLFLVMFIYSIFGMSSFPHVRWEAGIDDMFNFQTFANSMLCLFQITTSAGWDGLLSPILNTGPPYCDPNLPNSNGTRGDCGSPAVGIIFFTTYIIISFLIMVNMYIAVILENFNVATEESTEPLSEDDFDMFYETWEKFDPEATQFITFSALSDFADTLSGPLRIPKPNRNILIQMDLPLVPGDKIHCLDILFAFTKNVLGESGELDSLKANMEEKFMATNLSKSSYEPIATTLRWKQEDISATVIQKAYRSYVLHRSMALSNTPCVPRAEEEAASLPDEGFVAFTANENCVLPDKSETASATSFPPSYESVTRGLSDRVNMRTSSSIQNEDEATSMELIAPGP

IC50 [1]	IC50 [2]	Structure (SMILES)
200 to 500 nM	200 to 500 nM	COc1cc(C#N)ccc1Oc1nnc(C2=CCN(C(C)=O)CC2)c(C)c1C(=O)Nc1cccc(S(C)(=N)=O)c1 (centres unmarked) [Compound 1554, 6-(1-acetyl-3,6-dihydro-2H-pyridin-4-yl)-3-(4-cyano-2-methoxy-phenoxy)-5-methyl-N-[3-(methylsulfonimidoyl)phenyl]pyridazine-4-carboxamide]
≤ 20 nM	≤ 20 nM	COc1c(Oc2ncc(C(F)(F)F)cc2C(=O)Nc2cccc(C(N)=O)c2)ccc(F)c1F [Compound 1619]
≤ 20 nM	≤ 20 nM	COc1c(Oc2ncc(Br)cc2C(=O)Nc2cccc(S(C)(=N)=O)c2)ccc(F)c1F (centres unmarked) [Compound 1567, 5-bromo-2-(3,4-difluoro-2-methoxy-phenoxy)-N-[3-(methylsulfonimidoyl)phenyl]pyridine-3-carboxamide]
≤ 20 nM	≤ 20 nM	Cc1nc(F)ccc1Oc1ncc(C(F)(F)F)cc1C(=O)Nc1cccc([S@](C)(=N)=O)c1 (single isomer, unassigned) [Compound 1593]
200 to 500 nM	200 to 500 nM	COc1ccc(C#N)cc1Oc1ncc(C(F)(F)F)cc1C(=O)Nc1cccc(S(C)(=N)=O)c1 (centres unmarked) [Compound 1620]
≤ 20 nM	≤ 20 nM	COc1c(Oc2nc(C(F)(F)F)ccc2C(=O)Nc2cccc(S(C)(=N)=O)c2)ccc(F)c1F (centres unmarked) [Compound 1729, 2-(3,4-difluoro-2-methoxy-phenoxy)-N-[3-(methylsulfonimidoyl)phenyl]-6-(trifluoromethyl)pyridine-3-carboxamide]
≤ 20 nM	20 to 40 nM	COc1c(Oc2ncc(Br)cc2C(=O)Nc2ccnnc2)ccc(F)c1F [Compound 1683]
200 to 500 nM	200 to 500 nM	CS(=O)(=O)c1cccc(NC(=O)c2cc(C(F)(F)F)cnc2Oc2cccc3c2OCCC3)c1 [Compound 1626]
200 to 500 nM	200 to 500 nM	CS(=N)(=O)c1cccc(NC(=O)c2cc(C(F)(F)F)cnc2OC2CC(C#N)C2)c1 (centres unmarked) [Compound 1665]
40 to 200 nM	200 to 500 nM	CS(=O)(=O)c1cccc(NC(=O)c2cc(C(F)(F)F)cnc2Oc2cc(OC(F)(F)F)ccc2F)c1 [Compound 1658]
200 to 500 nM	200 to 500 nM	COc1cc(C)c(Oc2ncc(C(F)(F)F)cc2C(=O)Nc2cccc(S(C)(=N)=O)c2)cc1C#N (centres unmarked) [Compound 1621]
200 to 500 nM	200 to 500 nM	COc1ccc(Oc2ncc(C(F)(F)F)cc2C(=O)Nc2cccc(S(C)(=N)=O)c2)cc1F (centres unmarked) [Compound 1640]
20 to 40 nM	20 to 40 nM	COc1c(Oc2nccc(C(F)(F)F)c2C(=O)Nc2cccc(C(N)=O)c2)ccc(F)c1F [Compound 1652]
200 to 500 nM	200 to 500 nM	CS(=N)(=O)c1cccc(NC(=O)c2cc(C(F)(F)F)cnc2OCC23CC(C#N)(C2)C3)c1 (centres unmarked) [Compound 1631]
200 to 500 nM	200 to 500 nM	CS(=O)(=O)c1cccc(NC(=O)c2cc(C(F)(F)F)cnc2OC2CCC(=O)NC2)c1 (centres unmarked) [Compound 1606]
≤ 20 nM	≤ 20 nM	COc1c(Oc2ncc(C(F)(F)F)cc2C(=O)Nc2cccc(S(C)(=N)=O)c2)ccc(F)c1Cl (centres unmarked) [Compound 1618]
200 to 500 nM	200 to 500 nM	CC(C)Oc1ccc(Oc2ncc(C(F)(F)F)cc2C(=O)Nc2ccc(C(N)=O)cc2)c(F)c1 [Compound 1710]
20 to 40 nM	20 to 40 nM	COc1c(Oc2ncc(C#N)cc2C(=O)Nc2cccc(S(C)(=N)=O)c2)ccc(F)c1F (centres unmarked) [Compound 1723, 5-cyano-2-(3,4-difluoro-2-methoxy-phenoxy)-N-[3 (methylsulfonimidoyl)phenyl]pyridine-3-carboxamide]
200 to 500 nM	200 to 500 nM	NC(=O)c1cccc(NC(=O)c2cc(C(F)(F)F)cnc2OC23CC(C(F)(F)F)(C2)C3)c1 [Compound 1634]
200 to 500 nM	200 to 500 nM	NC(=O)c1cccc(NC(=O)c2cc(C(F)(F)F)cnc2Oc2ccc(C(F)F)nc2)c1 [Compound 1675]
200 to 500 nM	200 to 500 nM	CSc1cccc(NC(=O)c2cc(Br)cnc2Oc2ccc(F)cc2C)c1 [Compound 1577]
200 to 500 nM	200 to 500 nM	CS(=N)(=O)c1cccc(NC(=O)c2cc(C(F)(F)F)cnc2OC2CC3C(C2)C3(F)F)c1 (centres unmarked) [Compound 1672]

Second part, the molecule before the results:

Structure (SMILES)	IC50 [1]	IC50 [2]
COc1cc(C#N)ccc1Oc1nnc(-c2ccn(C)n2)c(C)c1C(=O)Nc1cccc(S(C)(=N)=O)c1 (centres unmarked) [Compound 1448, 3-(4-cyano-2-methoxy-phenoxy)-5-methyl-6-(1-methylpyrazol-3-yl)-N-[3-(methylsulfonimidoyl)phenyl]pyridazine-4-carboxamide]	200 to 500 nM	200 to 500 nM
Cc1cc(F)ccc1Oc1nnc(C(C)O)c(C)c1C(=O)Nc1cccc(S(C)(=N)=O)c1 (centres unmarked) [Compound 1547, 3-(4-fluoro-2-methyl-phenoxy)-6-(1-hydroxyethyl)-5-methyl-N-[3-(methylsulfonimidoyl)phenyl]pyridazine-4-carboxamide]	200 to 500 nM	200 to 500 nM
COc1cc(C#N)ccc1Oc1nnc(C(F)(F)F)c(C)c1C(=O)Nc1cccc(C(=O)NC2CCCC2C(N)=O)c1 (centres unmarked) [Compound 1444, N-[3-[(2-carbamoylcyclopentyl)carbamoyl]phenyl]-3-(4-cyano-2-methoxy-phenoxy)-5-methyl-6-(trifluoromethyl)pyridazine-4-carboxamide]	200 to 500 nM	200 to 500 nM
Cc1cc(C#N)ccc1Oc1nnc(C(F)(F)F)c(C)c1C(=O)Nc1cccc([S@](C)(=N)=O)c1 [Compound 1526, 3-(4-cyano-2-methylphenoxy)-N-{3-[(R)-imino(methyl)oxo-λ^6-sulfanyl]phenyl}-5-methyl-6-(trifluoromethyl)pyridazine-4-carboxamide]	≤ 20 nM	≤ 20 nM
COc1cc(C#N)ccc1Oc1nnc(C2CC2(F)F)c(C)c1C(=O)Nc1cccc([S@@](C)(=N)=O)c1 (stereo partly drawn) [Compound 1528, 3-(4-cyano-2-methoxyphenoxy)-6-(2,2-difluorocyclopropyl)-N-{3-[(S)-imino(methyl)oxo-λ^6-sulfanyl]phenyl}-5-methylpyridazine-4-carboxamide]	40 to 200 nM	40 to 200 nM
COc1c(Oc2nnc(C)c(C)c2C(=O)Nc2cccc(S(C)(=N)=O)c2)ccc(F)c1F (centres unmarked) [Compound 1435, 3-(3,4-difluoro-2-methoxyphenoxy)-5,6-dimethyl-N-(3-(S-methylsulfonimidoyl)phenyl)pyridazine-4-carboxamide]	200 to 500 nM	200 to 500 nM
Cc1c(C(F)(F)F)nnc(Oc2ccc(OC(F)(F)F)cc2F)c1C(=O)Nc1cccc(S(C)(=N)=O)c1 (centres unmarked) [Compound 1495, 3-[2-fluoro-4-(trifluoromethoxy)phenoxy]-5-methyl-N-[3-(methylsulfonimidoyl)phenyl]-6-(trifluoromethyl)pyridazine-4-carboxamide]	≤ 20 nM	≤ 20 nM
COc1cc(C#N)ccc1Oc1nnc(-c2ccc(C#N)cc2)c(C)c1C(=O)Nc1ccc[n+]([O-])c1 [Compound 1527, 3-(4-cyano-2-methoxy-phenoxy)-6-(4-cyanophenyl)-5-methyl-N-(1-oxidopyridin-1-ium-3-yl)pyridazine-4-carboxamide]	20 to 40 nM	20 to 40 nM
COc1c(Oc2nnc(C(F)(F)F)c(C)c2C(=O)Nc2cccnc2)ccc(F)c1F [Compound 1475, 3-(3,4-difluoro-2-methoxy-phenoxy)-5-methyl-N-(3-pyridyl)-6-(trifluoromethyl)pyridazine-4-carboxamide]	≤ 20 nM	≤ 20 nM
COc1cc(C#N)ccc1Oc1nnc(-c2ccc(C(F)F)cc2)c(C)c1C(=O)Nc1cccc(S(C)(=N)=O)c1 (centres unmarked) [Compound 1453, 3-(4-cyano-2-methoxy-phenoxy)-6-[4-(difluoromethyl)phenyl]-5-methyl-N-[3-(methylsulfonimidoyl)phenyl]pyridazine-4-carboxamide]	≤ 20 nM	≤ 20 nM
Cc1c(C(F)(F)F)nnc(Oc2ccc(OC(F)(F)F)cc2F)c1C(=O)Nc1cccc(S(C)(=O)=O)c1 [Compound 1467, 3-[2-fluoro-4-(trifluoromethoxy)phenoxy]-N-(3-methanesulfonylphenyl)-5-methyl-6-(trifluoromethyl)pyridazine-4-carboxamide]	≤ 20 nM	≤ 20 nM
COc1cc(C#N)ccc1Oc1nnc(-c2cncs2)c(C)c1C(=O)Nc1cccc(S(C)(=N)=O)c1 (centres unmarked) [Compound 1460, 3-(4-cyano-2-methoxy-phenoxy)-5-methyl-N-[3-(methylsulfonimidoyl)phenyl]-6-thiazol-5-yl-pyridazine-4-carboxamide]	200 to 500 nM	200 to 500 nM
COc1ncc(-c2nnc(Oc3ccc(C#N)cc3OC)c(C(=O)Nc3cccc(S(C)(=N)=O)c3)c2C)s1 (centres unmarked) [Compound 1461, 3-(4-cyano-2-methoxy-phenoxy)-6-(2-methoxythiazol-5-yl)-5-methyl-N-[3-(methylsulfonimidoyl)phenyl]pyridazine-4-carboxamide; formic acid]	40 to 200 nM	200 to 500 nM
COc1cc(C#N)ccc1Oc1nnc(-c2ccc(C#N)cc2)c(C)c1C(=O)Nc1cccc(S(C)(=N)=O)c1 (centres unmarked) [Compound 1446, 3-(4-cyano-2-methoxy-phenoxy)-6-(4-cyanophenyl)-5-methyl-N-[3-(methylsulfonimidoyl)phenyl]pyridazine-4-carboxamide]	20 to 40 nM	20 to 40 nM
COc1cc(C#N)ccc1Oc1nnc(-c2cccc(C#N)c2)c(C)c1C(=O)Nc1cccc(S(C)(=N)=O)c1 (centres unmarked) [Compound 1451, 3-(4-cyano-2-methoxy-phenoxy)-6-(3-cyanophenyl)-5-methyl-N-[3-(methylsulfonimidoyl)phenyl]pyridazine-4-carboxamide]	200 to 500 nM	200 to 500 nM
